From ChEMBL document CHEMBL1151292, “Antineoplastic activity and cytotoxicity of flavones, isoflavones, and flavanones” (1979)
≈ marks a conversion by molar mass, not a printed value. Calls of active or inactive are those of the source.

Columns and labels:
[1] = test system: KB; experiment: Cytotoxicity against human KB cells; type: functional; conditions: read-out: ED50 (the source's name)
[2] = test system: L1210; experiment: In vivo antitumor activity against mouse L1210 cells; type: functional, organism-based
[3] = test system: CCRF S-180; experiment: In vivo antitumor activity against mouse S180 cells; type: functional, organism-based
[4] = test system: CA-755; experiment: In vivo antitumor activity against mouse CA-755 cells; type: functional, organism-based
[5] = test system: Lewis lung carcinoma cell line; experiment: In vivo antitumor activity against mouse LLC cells; type: functional, organism-based

SMILES | EC50 [1] [µg/mL] | Activity [2] | Activity [3] | Activity [4] | Activity [5]
COc1ccc2c(=O)c(N(S(C)(=O)=O)S(C)(=O)=O)c(-c3ccccc3)oc2c1CN(C)C | > 100 | inactive | inactive | inactive | 
Cc1oc2cc(O)ccc2c(=O)c1-c1ccccc1Br | 66 (≈ 199 µM) | inactive | inactive | inactive | 
O=c1cc(-c2ccccc2)oc2ccccc12 |  | inactive | inactive | inactive | 
O=C1c2ccc(O)cc2OC(c2cc(O)c(O)c(O)c2)C1O (configuration not stated) [DIHYDROBINETIN] | 23 (≈ 75.6 µM) | inactive | inactive | inactive | 
COc1ccc(C2CC(=O)c3ccccc3O2)cc1 (configuration not stated) |  | inactive | inactive | inactive | 
COc1ccc([C@@H]2CC(=O)c3c(O)cc(O)cc3O2)cc1O |  | inactive | inactive | inactive | 
O=C1c2ccccc2OC(Cl)(c2ccccc2)C1Cl (configuration not stated) |  | inactive | inactive | inactive | 
O=c1cc(-c2ccccc2)oc2ccc(F)cc12 |  |  | inactive |  | inactive
O=C1CC(c2ccccc2Cl)Oc2ccccc21 (configuration not stated) |  | inactive | inactive | inactive | 
O=C1CC(c2ccccc2Cl)Oc2ccc(Cl)cc21 (configuration not stated) |  | inactive | inactive | inactive | 
O=C1CC(c2ccc(Cl)cc2Cl)Oc2ccc(Cl)cc21 (configuration not stated) |  | inactive | inactive | inactive | 
O=C1/C(=N\O)C(c2ccccc2)Oc2ccccc21 (configuration not stated) | 35 (≈ 138 µM) | inactive | inactive | inactive | 
COc1ccc2c(c1)C(=O)CC(c1ccccc1)O2 (configuration not stated) |  | inactive | Active | inactive | 
COc1ccc(C2CC(=O)c3c(cc(OC)c(OC)c3OC)O2)cc1 (configuration not stated) |  | inactive | inactive | inactive | 
O=C1CC(c2ccc(Cl)cc2)Oc2ccccc21 (configuration not stated) |  | inactive | inactive | inactive | 
O=c1cc(-c2ccc(O)cc2)oc2ccccc12 |  | inactive | inactive | inactive | 
COc1cc2oc(-c3ccc(O)cc3)cc(=O)c2c(OC)c1OC | 19 (≈ 57.9 µM) | inactive | inactive | inactive | 
COc1c(OC)c(OC)c(-c2cc(=O)c3c(OC)c(OC)c(OC)c(OC)c3o2)c(OC)c1OC | 4 (≈ 8.12 µM) |  |  |  | inactive
O=C1C[C@@H](c2ccccc2)Oc2cc(O)cc(O)c21 |  | inactive | inactive | inactive | 
COc1cc2c(c(OC)c1OC)C(=O)CC(c1ccc(O)cc1)O2 (configuration not stated) |  | inactive | inactive | inactive | 
O=c1cc(-c2ccccc2F)oc2ccccc12 |  | inactive | inactive |  | inactive
Cl.NC1C(=O)c2ccccc2OC1c1ccccc1 (configuration not stated) | 3 | inactive | inactive | inactive | 

SMILES | EC50 [1] [µg/mL] | Activity [2] | Activity [3] | Activity [4] | Activity [5]
COc1ccc(C2CC(=O)c3c(cc(OC)c(O)c3OC)O2)cc1 (configuration not stated) |  | inactive | inactive | inactive | 
COc1cc(C)cc2c1OC(c1ccccc1)CC2=O.Cl (configuration not stated) | 26 | inactive | inactive | inactive | 
COc1ccc(-c2oc3cc(OC(C)=O)cc(OC(C)=O)c3c(=O)c2OC)cc1 |  | inactive | inactive | Active | 
O=c1cc(-c2cccc([N+](=O)[O-])c2)oc2ccccc12 | 2 (≈ 7.48 µM) | inactive | inactive | inactive | 
COc1cc(O)c2c(=O)c(O)c(-c3ccc(O)c(O)c3)oc2c1 |  | inactive | inactive | inactive | 
COc1ccc(-c2oc3cc(O)cc(O)c3c(=O)c2OC)cc1 |  | inactive | inactive | Active | 
CC(=O)Oc1cc(O)c2c(=O)c(OC(C)=O)c(-c3ccc(OC(C)=O)c(OC(C)=O)c3)oc2c1 | 22 (≈ 46.8 µM) | inactive | inactive | inactive | 
COc1ccc(-c2cc(=O)c3c(OC)c(O)c(OC)cc3o2)cc1 |  | inactive | inactive | inactive | 
COc1c(OC)c(OC)c2c(c1OC)OC(c1ccc(O)cc1)CC2=O (configuration not stated) | 26 (≈ 72.1 µM) | inactive | inactive | inactive | 
O=C1CC(c2ccccc2)Oc2ccc(Cl)cc21 (configuration not stated) | 1 (≈ 3.87 µM) | inactive | inactive | inactive | 
O=c1c(-c2ccc(O)cc2)coc2cc(O)cc(O)c12 [GENISTEIN] | 6.7 (≈ 24.8 µM) | inactive | inactive | inactive | 
O=C1CC(c2ccc(Cl)cc2)Oc2ccc(Cl)cc21 (configuration not stated) |  | inactive | inactive | inactive | 
COc1cc2c(c(OC)c1O)C(=O)CC(c1ccc(O)cc1)O2 (configuration not stated) |  | inactive | inactive | inactive | 
COc1ccc(C2CC(=O)c3ccccc3O2)cc1OC (configuration not stated) |  | inactive | inactive | inactive | 
COc1ccc(-c2cc(=O)c3c(OC)c(OC)c(OC)cc3o2)cc1 | 27 (≈ 78.9 µM) | inactive | inactive | inactive | 
COc1ccc(C2CC(=O)c3c(OC(C)=O)cc(OC(C)=O)cc3O2)cc1OC(C)=O (configuration not stated) |  | inactive | inactive | inactive | 
COc1ccc2c(c1)C(=O)CC(c1ccccc1OC)O2 (configuration not stated) | 24 (≈ 84.4 µM) | inactive | inactive | inactive | 
COc1cc(O)c2c(=O)c(OC)c(-c3ccc(OC)c(OC)c3)oc2c1 [RETUSIN] | 41 (≈ 114 µM) | inactive | inactive | inactive | 
CC(=O)Nc1c(-c2ccccc2)oc2ccccc2c1=O | > 100 | inactive | inactive | inactive | 
COc1ccc([C@@H]2CC(=O)c3c(O)cc(O[C@@H]4O[C@H](CO[C@@H]5O[C@@H](C)[C@H](O)[C@@H](O)[C@H]5O)[C@@H](O)[C@H](O)[C@H]4O)cc3O2)cc1O |  | inactive | inactive | inactive | 
COc1ccc(C2CC(=O)c3cc(OC)ccc3O2)cc1 (configuration not stated) |  | inactive | inactive | inactive | 
Nc1c(-c2ccccc2)oc2ccccc2c1=O | > 100 | inactive | inactive | inactive | 
